Results as given in PMC3414448 (PLoS ONE, 2012).
Where “and” joins values, the source holds several entries; their conditions need not be identical. Identical values can stand only once. Like-named read-outs stand apart in the source and are kept apart here.

How the values were obtained:
[1] = test system: undifferentiated Caco-2 cells
[2] = test system: differentiated Caco-2 cells
[3] = test system: 8-hydroxydeoxyguanosine (8-OHdG)
[4] = test system: phosphorylated histone variant H2AX (γ-H2AX)
[5] = test system: 8-hydroxydeoxyguanosine (8-OHdG); remark: listed apart in the source
[6] = test system: phosphorylated histone variant H2AX (γ-H2AX); remark: listed apart in the source
[7] = test system: 8-hydroxydeoxyguanosine (8-OHdG); assay: cells; conditions: Homo sapiens, Caco-2, 24 h, read-out: EC50 8-OHdG nuclear staining
[8] = test system: phosphorylated histone variant H2AX (γ-H2AX); assay: cells; conditions: Homo sapiens, Caco-2, 24 h, read-out: EC50 γ-H2AX nuclear staining

Structure (SMILES) | Cell Count (%Control) (CHO-K1 cells) | Cell Count (%Control) (A549 cells) | concentration at which nuclear area was significantly increased [1] | cytotoxicity in differentiated cells [2] | concentration at which 8-OHdG staining was significantly increased [3] | EC50 ([3]; read-out: EC50 8-OHdG nuclear staining) | concentration at which γ-H2AX staining was significantly increased [4] | γ-H2AX staining at non-cytotoxic concentrations [4] | concentration at which 8-OHdG was significantly increased [5] | concentration at which γ-H2AX staining was increased [6] | concentration at which nuclear area was significantly increased ([1]; undifferentiated Caco-2, 24 hr, p<0.05) | EC50 [7] | EC50 [8]
CO[C@@]12[C@H](COC(N)=O)C3=C(C(=O)C(C)=C(N)C3=O)N1C[C@@H]1N[C@@H]12 [MMC, mitomycin C] | 98.56 %Control and 101.70 %Control and 91.11 %Control | 98.78 %Control and 95.22 %Control and 78.78 %Control |  |  |  |  |  |  |  |  |  |  | 
OO [Peroxide, hydrogen peroxide] |  |  | ≥ 100 µM | Neither rotenone nor peroxide induced cytotoxicity | not statistically significant | 5500 nM | 300 µM | increased γ-H2AX staining at the highest non-cytotoxic concentration (100 µM) | 100 µM | 1000 µM |  |  | 
C=C(C)[C@H]1Cc2c(ccc3c2O[C@@H]2COc4cc(OC)c(OC)cc4[C@@H]2C3=O)O1 [Rotenone, rotenone] |  |  |  | Neither rotenone nor peroxide induced cytotoxicity |  |  |  |  |  |  | all rotenone concentrations | 990 nM | 1100 nM
